According to patent US7361783B2, “(2S)-2-ethylphenylpropionic acid derivative” (Kyorin Pharmaceutical Co., Ltd., priority 2002, dated 2008):

biological target: T1, human peroxisome proliferator-activated receptor (PPAR) α (Homo sapiens, UniProt Q07869); experiment: Test of transcriptional activation on human PPARα (luciferase reporter, transfected CHO cells); format: cell-based; conditions: CHO cells cotransfected with yeast DNA-binding domain/human PPARα ligand-binding domain fusion and reporter plasmid; luciferase after 24 hours, corrected with Renilla internal standard
T1 construct: expressed in transfected cells; host or cells: CHO cells
T1 sequence (Q07869 239-466 limits assumed): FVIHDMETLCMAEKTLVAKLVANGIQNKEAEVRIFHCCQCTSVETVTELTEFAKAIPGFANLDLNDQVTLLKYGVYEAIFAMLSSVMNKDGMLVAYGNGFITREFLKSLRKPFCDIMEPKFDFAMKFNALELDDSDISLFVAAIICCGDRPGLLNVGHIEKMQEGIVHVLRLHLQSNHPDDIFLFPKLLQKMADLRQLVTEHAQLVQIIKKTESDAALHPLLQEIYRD
Method: Test of Transcriptional Activation on Human Peroxisome Proliferator-activated Receptor (PPAR) α
The CHO cells were cultured in a Dulbecco-modified Eagle's medium containing 10% delipid fetal calf serum (FCS/DMEM). To these cells were cotransfected receptor plasmid and its reporter plasmid (STRATAGENE Corp.) that express fused protein of DNA-binding domain being transcription factor of yeast with ligand-binding domain of human PPARα (Biochemistry, 1993, 32, 5598), and luciferase plasmid of Renilla (Promega Corp.) for internal standard, using lipofectamine. Thereafter, testing compound or (8S)-HETE being a control compound was added in the 10% SFCS/DMEM and both luciferase activities were measured after 24 hours, which were corrected with internal standard.

SMILES | EC50 [nM]
CC[C@@H](Cc1ccc(OC)c(C(=O)NCc2ccc(Oc3ccc(F)c(F)c3)cc2)c1)C(=O)O [Example 9, (2S)-2-{[3-(N-{[4-(3,4-Difluorophenoxy)phenyl]methyl}carbamoyl)-4-methoxyphenyl]methyl}butyric acid] | 1.6
CCCCC/C=C\C/C=C\C=C\[C@@H](O)C/C=C\CCCC(=O)O [(8S)-HETE, reference compound] | 1300
CC[C@@H](Cc1ccc(OC)c(C(=O)NCc2ccc(Oc3cc(F)cc(F)c3)cc2)c1)C(=O)O [Example 10, (2S)-2-{[3-(N-{[4-(3,5-Difluorophenoxy)phenyl]methyl}carbamoyl)-4-methoxyphenyl]methyl}butyric acid] | 2.9
CC[C@@H](Cc1ccc(OC)c(C(=O)NCc2ccc(Oc3cc(F)c(F)c(F)c3)cc2)c1)C(=O)OC [Example 16, Methyl (2S)-2-{[4-methoxy-3-(N-{[4-(3,4,5-trifluorophenoxy)phenyl]methyl}carbamoyl)phenyl]methyl}butyrate] | 2.3

tested on: male Beagle dog; experiment: Test of lipid-lowering effect in Beagle dog; format: in vivo; conditions: serum; oral 0.03 mg/kg/day once a day for 14 days; before vs after administration
Method: Test of Lipid-lowering Effect
To a 27-month old male Beagle dog (HRA Beagle; Convance Research Products Inc.) was orally administered testing compound (0.3 mg/mL) in weak aqueous alkali solution sealed in a gelatin capsule once a day for continuous 14 days (0.03 mg/kg/day). For the feed during the period of administration, standard diet (Canine diet, PMI nutrition International Inc.) was used. Blood was collected before start of administration and after administration for 14 days, and total cholesterol value in serum and triglyceride value were measured by enzymic method [Cholesterol E-Test Wako (Wako Pure Chemical Industries,Ltd.), Liquitec TGII reagent 1, 2 (Rosch) and standard serum for measurement of lipid (Rosch) were used]. The decreasing rates of total cholesterol value and triglyceride value were calculated, respectively, according to following calculation formula. Decreasing rate (%)=(Measured value before administration−Measured value after administration)/Measured value before administration×100 [Result]

SMILES | Decreasing rate Total cholesterol [%] | Decreasing rate Triglyceride [%]
CC[C@@H](Cc1ccc(OC)c(C(=O)NCc2ccc(Oc3cc(F)cc(F)c3)cc2)c1)C(=O)O [Example 10, (2S)-2-{[3-(N-{[4-(3,5-Difluorophenoxy)phenyl]methyl}carbamoyl)-4-methoxyphenyl]methyl}butyric acid] | 28 | 50

tested on: not given; experiment: not given; conditions: not given

SMILES | melting point [°C]
CC[C@@H](Cc1ccc(OC)c(C(=O)NCc2ccc(Oc3c(F)cccc3F)cc2)c1)C(=O)O [Example 14, (2S)-2-{[3-(N-{[4-(2,6-Difluorophenoxy)phenyl]methyl}carbamoyl)-4-methoxyphenyl]methyl}butyric acid] | 106 to 108
CC[C@@H](Cc1ccc(OC)c(C(=O)NCc2ccc(Oc3ccc(Cl)c(C(F)(F)F)c3)cc2)c1)C(=O)O [Example 34, (2S)-2-{[4-Methoxy-3-(N-{[4-(4-chloro-3-trifluoromethylphenoxy)phenyl]methyl}carbamoyl)phenyl]methyl}butyric acid] | 141 to 142
CC[C@@H](Cc1ccc(OC)c(C(=O)NCc2ccc(Oc3cc(F)cc(C(F)(F)F)c3)cc2)c1)C(=O)O [Example 35, (2S)-2-{[4-Methoxy-3-(N-{[4-(3-fluoro-5-trifluoromethylphenoxy)phenyl]methyl}carbamoyl)phenyl]methyl}butyric acid] | 125 to 128
CC[C@@H](Cc1ccc(OC)c(C(=O)NCc2ccc(Oc3ccc(Cl)c(Cl)c3)cc2)c1)C(=O)O [Example 31, (2S)-2-{[4-Methoxy-3-(N-{[4-(3,4-dichlorophenoxy)phenyl]methyl}carbamoyl)phenyl]methyl}butyric acid] | 139 to 141
CC[C@@H](Cc1ccc(OC)c(C(=O)NCc2ccc(Oc3cc(C(F)(F)F)cc(C(F)(F)F)c3)cc2)c1)C(=O)O [Example 15, (2S)-2-({3-[N-({4-[3,5-Bis(trifluoromethyl)phenoxy]phenyl}methyl)carbamoyl]-4-methoxyphenyl}methyl)butyric acid] | 125 to 127
CC[C@@H](Cc1ccc(OC)c(C(=O)NCc2ccc(Oc3cccc(F)c3F)cc2)c1)C(=O)O [Example 11, (2S)-2-{[3-(N-{[4-(2,3-Difluorophenoxy)phenyl]methyl}carbamoyl)-4-methoxyphenyl]methyl}butyric acid] | 93 to 95
CC[C@@H](Cc1ccc(OC)c(C(=O)NCc2ccc(Oc3ccc(Br)c(Cl)c3)cc2)c1)C(=O)O [Example 33, (2S)-2-{[4-Methoxy-3-(N-{[4-(4-bromo-3-chlorophenoxy)phenyl]methyl}carbamoyl)phenyl]methyl}butyric acid] | 140 to 142
CC[C@@H](Cc1ccc(OC)c(C(=O)NCc2ccc(Oc3cc(Cl)cc(Cl)c3)cc2)c1)C(=O)O [Example 30, (2S)-2-{[4-Methoxy-3-(N-{[4-(3,5-dichlorophenoxy)phenyl]methyl}carbamoyl)phenyl]methyl}butyric Acid] | 145 to 148

Next, values leading:

melting point [°C] | SMILES
117 to 118 | CC[C@@H](Cc1ccc(OC)c(C(=O)NCc2ccc(Oc3ccc(Cl)c(F)c3)cc2)c1)C(=O)O [Example 32, (2S)-2-{[4-Methoxy-3-(N-{[4-(4-chloro-3-fluorophenoxy)phenyl]methyl}carbamoyl)phenyl]methyl}butyric acid]
118 to 120 | CC[C@@H](Cc1ccc(OC)c(C(=O)NCc2ccc(Oc3ccc(F)c(F)c3)cc2)c1)C(=O)O [Example 9, (2S)-2-{[3-(N-{[4-(3,4-Difluorophenoxy)phenyl]methyl}carbamoyl)-4-methoxyphenyl]methyl}butyric acid]
133 to 135 | CC[C@@H](Cc1ccc(OC)c(C(=O)NCc2ccc(Oc3cc(F)c(F)c(F)c3)cc2)c1)C(=O)O [Example 17, (2S)-2-{[4-Methoxy-3-(N-{[4-(3,4,5-trifluorophenoxy)phenyl]methyl}carbamoyl)phenyl]methyl}butyric acid]
116 to 118 | CC[C@@H](Cc1ccc(OC)c(C(=O)NCc2ccc(Oc3cc(F)ccc3F)cc2)c1)C(=O)O [Example 13, (2S)-2-{[3-(N-{[4-(2,5-Difluorophenoxy)phenyl]methyl}carbamoyl)-4-methoxyphenyl]methyl}butyric acid]
140 to 142 | CC[C@@H](Cc1ccc(OC)c(C(=O)NCc2ccc(Oc3cc(F)cc(F)c3)cc2)c1)C(=O)O [Example 10, (2S)-2-{[3-(N-{[4-(3,5-Difluorophenoxy)phenyl]methyl}carbamoyl)-4-methoxyphenyl]methyl}butyric acid]
